In patent publication US20180228823A1, “ANTI-DIABETIC EFFECTS OF GYPENOSIDE 75” (INTELLIGENT SYNTHETIC BIOLOGY CENTER, priority 2016, published 2018):

What was measured:
Type in all cases: cell-based
[1] = test system: INS-1 cells; test: Insulin secretion of INS-1 cells measured by ELISA; details: 10 μM, 2 hours
Procedure: In order to confirm the effect of gypenoside 75 on an increase in insulin secretion, the amount of insulin secreted after treatment with gypenoside 75 was measured. Specifically, in order to confirm the effect of gypenoside 75 on an increase in insulin secretion, INS-1 cells, which are insulin-secreting cells, were cultured in a cell incubator (37° C., 5% CO2, RPMI culture medium, 10% FBS). The cells were treated with each of 10 μM of gypenoside 75, ginsenoside F1, ginsenoside Rg3, ginsenoside Rb2, and ginsenoside Rb3 for 2 hours, and the amounts of insulin secreted after the treatments were then measured via the ELISA method.

[2] = test system: INS-1 cells; test: Mitochondrial membrane potential by TMRM staining and FACS in INS-1 cells; details: 10 μM, 2 hours, TMRM staining, FACS
Procedure: (§1) If mitochondrial function is impaired, it may cause diabetes mellitus by interfering with insulin signaling. Accordingly, in order to confirm the effect of gypenoside 75 on the activation of the mitochondrial function, after gypenoside 75 was treated, an increased amount of ATP and mitochondrial membrane potentials were measured. Specifically, in order to confirm the effect of gypenoside 75 on the activation of the mitochondrial function, INS-1 cells, which are insulin-secreting cells, were cultured in a cell incubator (37° C., 5% CO2, RPMI culture medium, 10% FBS). The cells were treated with 10 μM of gypenoside 75 for 2 hours, and the amount of ATP and mitochondrial membrane potentials inside the cells were then measured. To measure the amount of intracellular ATP, the INS-1 cells treated with gypenoside 75 were lysed through freezing-thawing and ultrasonication methods. The cell lysates were mixed with luciferase and luciferin to induce fluorescence. As the activation of the luciferase and fluorescence induced thereby depend on the amount of ATP, the degree of fluorescence was measured with a fluorometer to determine the amount of ATP. To measure the mitochondrial membrane potential, the INS-1 cells treated with gypenoside 75 were then stained with TMRM, and the degree of the staining of each cell was measured using a FACS instrument. As the mitochondrial membrane potential increases, the degree of staining by TMRM increases.

[3] = test system: INS-1 cells; test: Intracellular ATP amount by luciferase/luciferin assay in INS-1 cells; details: 10 μM, 2 hours, luciferase
Procedure: as §1

Structure (SMILES)	increase of the amount of insulin secreted compared to control group (DMSO) [1]	increase of mitochondrial membrane potential compared to control group (DMSO) [2]	increase of the amount of intracellular ATP compared to control group (DMSO) [3]
CC(C)=CCC[C@](C)(O[C@@H]1O[C@H](CO)[C@@H](O)[C@H](O)[C@H]1O)[C@H]1CC[C@]2(C)[C@@H]1[C@H](O)C[C@@H]1[C@@]3(C)CC[C@H](O)C(C)(C)[C@@H]3[C@@H](O)C[C@]12C [ginsenoside F1]	50%	about 20%	about 40%
CC(C)=CCC[C@](C)(O[C@@H]1O[C@H](CO[C@@H]2OC[C@H](O)[C@H](O)[C@H]2O)[C@@H](O)[C@H](O)[C@H]1O)[C@H]1CC[C@]2(C)[C@@H]1[C@H](O)C[C@@H]1[C@@]3(C)CC[C@H](O[C@@H]4O[C@H](CO)[C@@H](O)[C@H](O)[C@H]4O[C@@H]4O[C@H](CO)[C@@H](O)[C@H](O)[C@H]4O)C(C)(C)[C@@H]3CC[C@]12C [ginsenoside Rb2]	50%	about 20%	about 40%
CC(C)=CCC[C@](C)(O[C@@H]1O[C@H](CO[C@@H]2OC[C@@H](O)[C@H](O)[C@H]2O)[C@@H](O)[C@H](O)[C@H]1O)[C@H]1CC[C@]2(C)[C@@H]1[C@H](O)C[C@@H]1[C@@]3(C)CC[C@H](O[C@@H]4O[C@H](CO)[C@@H](O)[C@H](O)[C@H]4O[C@@H]4O[C@H](CO)[C@@H](O)[C@H](O)[C@H]4O)C(C)(C)[C@@H]3CC[C@]12C [ginsenoside Rb3]	50%	about 20%	about 40%
CC(C)=CCC[C@](C)(O)[C@H]1CC[C@]2(C)[C@@H]1[C@H](O)C[C@@H]1[C@@]3(C)CC[C@H](O[C@@H]4O[C@H](CO)[C@@H](O)[C@H](O)[C@H]4O[C@@H]4O[C@H](CO)[C@@H](O)[C@H](O)[C@H]4O)C(C)(C)[C@@H]3CC[C@]12C [ginsenoside Rg3]	50%	about 20%	about 40%
CC(C)=CCC[C@](C)(O[C@@H]1O[C@H](CO[C@@H]2O[C@H](CO)[C@@H](O)[C@H](O)[C@H]2O)[C@@H](O)[C@H](O)[C@H]1O)[C@H]1CC[C@]2(C)[C@@H]1[C@H](O)C[C@@H]1[C@@]3(C)CC[C@H](O)C(C)(C)[C@@H]3CC[C@]12C [gypenoside 75]	about 110%	about 40%	50%
